# Tests used:
# wild-type AR = target: T1, wild-type AR (Homo sapiens, UniProt P10275); assay: Anti-DHT activity on AR transcription, MMTV-Luc reporter in PC-3 cells transfected with AR; type: cell-based; set-up: expressed in transfected cells; host or cells: PC-3; conditions: PC-3, 1 nM DHT, compound at 0.01, 0.1 or 1 μM, dose-dependent
# T1 sequence (P10275 1-920): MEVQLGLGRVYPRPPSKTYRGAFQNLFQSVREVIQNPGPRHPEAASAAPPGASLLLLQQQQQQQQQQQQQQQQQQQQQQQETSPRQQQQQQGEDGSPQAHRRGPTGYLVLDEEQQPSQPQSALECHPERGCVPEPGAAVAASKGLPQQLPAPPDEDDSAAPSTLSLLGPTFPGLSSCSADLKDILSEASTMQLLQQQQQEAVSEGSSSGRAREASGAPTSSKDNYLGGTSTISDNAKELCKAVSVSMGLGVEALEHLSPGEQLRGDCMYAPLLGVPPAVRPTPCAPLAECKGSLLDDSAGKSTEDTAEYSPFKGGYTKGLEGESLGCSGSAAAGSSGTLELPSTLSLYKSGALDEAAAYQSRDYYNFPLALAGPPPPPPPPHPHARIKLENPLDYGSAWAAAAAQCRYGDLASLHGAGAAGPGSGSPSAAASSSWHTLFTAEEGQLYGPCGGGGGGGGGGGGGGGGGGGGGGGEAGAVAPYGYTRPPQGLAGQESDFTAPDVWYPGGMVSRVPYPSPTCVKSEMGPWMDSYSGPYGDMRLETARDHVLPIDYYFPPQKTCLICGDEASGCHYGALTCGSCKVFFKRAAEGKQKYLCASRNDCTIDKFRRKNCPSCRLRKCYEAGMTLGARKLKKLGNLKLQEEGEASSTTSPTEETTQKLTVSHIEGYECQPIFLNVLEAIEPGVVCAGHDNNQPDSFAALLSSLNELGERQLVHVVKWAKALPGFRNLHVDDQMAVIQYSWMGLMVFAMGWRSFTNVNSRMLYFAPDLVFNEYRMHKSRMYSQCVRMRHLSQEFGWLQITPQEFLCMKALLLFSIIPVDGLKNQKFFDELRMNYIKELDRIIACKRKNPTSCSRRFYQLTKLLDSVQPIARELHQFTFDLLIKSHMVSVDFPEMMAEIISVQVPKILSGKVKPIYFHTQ
# Procedure: Cell Culture, Transfection, and Reporter Gene Assay. The human prostate cancer cell lines, LNCaP, PC-3, and DU145, and non-prostate cancer cell line COS-1 were maintained in RPMI or Dulbecco's modified Eagle's medium (DMEM) (Life Technologies) supplemented with 10% fetal bovine serum (FBS). Transfections and luciferase (Luc) assays were performed as previously described (Miyamoto, H., Yeh, S., Wilding, G. & Chang, C. (1998) Proc. Natl. Acad. Sci. USA 95, 7379-7384; Miyamoto, H., Rahman, M., Takatera, H., Kang, H.-Y., Yeh, S., Chang, H.-C., Nishimura, K., Fujimoto, N. & Chang, C. (2002) J. Biol. Chem. 277, 4609-4617). Briefly, cells seeded to reach a density of 50-60% confluence in 12 well tissue culture plates were transfected with 1.5 μg of DNA according to “SuperFect transfection” instructions (Qiagen). After 2-3 h incubation, cells were treated with medium supplemented with charcoal-stripped FBS containing either ethanol or ligands for 24 h. The cells were then harvested and whole cell extracts were used for Luc assay. The Luc activity was determined using a Dual-Luciferase Reporter Assay System (Promega) and luminometer.
# To accomplish these studies, PC-3 cells were transfected with the wild-type AR expression plasmid pSG5-AR and MMTV-Luc. […] The Luc activity was measured relative to that of ethanol treatment (set as 1-fold). Values from the mean±SD of at least three determinations were used. PC-3 cells were transfected with the pSG5-AR and MMTV-Luc. […] Values from the mean±SD of at least three determinations were obtained.
# estrogen receptor (ER) = assay: Steroid hormone specificity, ER/ERE-Luc in PC-3 cells; type: cell-based, human; conditions: PC-3, ER/ERE-Luc, ADEK at 0.01 mM, 0.1 mM and 1.0 mM, 24 h
# Procedure: Cell Culture, Transfection, and Reporter Gene Assay. The human prostate cancer cell lines, LNCaP, PC-3, and DU145, and non-prostate cancer cell line COS-1 were maintained in RPMI or Dulbecco's modified Eagle's medium (DMEM) (Life Technologies) supplemented with 10% fetal bovine serum (FBS). Transfections and luciferase (Luc) assays were performed as previously described (Miyamoto, H., Yeh, S., Wilding, G. & Chang, C. (1998) Proc. Natl. Acad. Sci. USA 95, 7379-7384; Miyamoto, H., Rahman, M., Takatera, H., Kang, H.-Y., Yeh, S., Chang, H.-C., Nishimura, K., Fujimoto, N. & Chang, C. (2002) J. Biol. Chem. 277, 4609-4617). Briefly, cells seeded to reach a density of 50-60% confluence in 12 well tissue culture plates were transfected with 1.5 μg of DNA according to “SuperFect transfection” instructions (Qiagen). […] The Luc activity was determined using a Dual-Luciferase Reporter Assay System (Promega) and luminometer.
# Steroid Hormone Specificity of ADEK. To characterize the steroid hormone activity of ADEK, PC-3 cells were transfected with steroid receptor/reporter (progesterone receptor (PR)/MMTV-Luc, glucocorticoid receptor (GR)/MMTV-Luc, or estrogen receptor (ER)/ERE-Luc) and analyzed for expression of the Luc reporter gene. […] The Luc activity was measured relative to that of ETOH treatment (set as 1-fold). […]
compound,measurement,setting,value
"CC(=O)O[C@H]1C=C[C@@]2(C)C(=CC[C@@H]3[C@@H]2CC[C@@]2(C)[C@H]3CCC23OCCO3)C1 [ADEK, 3β-acetoxy-17,17-ethylenedioxyandrosta-1,5-diene]",DHT-induced AR transactivation suppressed to (Luc activity relative to DHT = 100%),wild-type AR,30%
same,estrogenic activity (in words),estrogen receptor (ER),some estrogenic activity
